The term clearance denotes a measure of how efficiently the substance is removed, as volume per time. The IC50 is the concentration needed to halve the response being measured.

A short description of series [1]: Pharmacokinetics, noncompartmental parameters following intravenous (IV) dosing. The settings on record: in vivo. As for the experimental part:
Noncompartmental pharmacokinetic parameters were analyzed using Watson Bioanalytical LIMS (Version 7.4; Thermo Fisher Scientific) from either the blood or plasma samples. The following parameters were estimated following intravenous (IV) dosing; terminal elimination half-life (T1/2=ln(2)/λz, where λz is the first order rate constant associated with the terminal (log-linear) portion of the curve.
The area under the curve (AUClast=area under the curve from the time of dosing to the last measurable concentration). The area under the curve extrapolated to infinity (AUC0-∞=AUClast+Clast/λz). The clearance (Cl; Cl=DoseIV/AUC0-∞). The area under the first moment curve (AUMClast=area under the concentration times time versus time curve from the time of dosing to the last measurable concentration). The area under the first moment curve extrapolated to infinity (AUMC0-∞=AUMClast+Clast×t/λz+Clast/λz^2). The mean residence time (MRT=AUMC0-∞/AUC0-∞) and the steady state volume of distribution (Vdss=MRT×Cl).
Clearance and volume of distribution can also be obtained using methods known to one of skill in the art (see e.g., Handbook of Essential Pharmacokinetics, Pharmacodynamics and Drug Metabolism for Industrial Scientists, Younggil Kwon, pp 18-28 (Non-compartmental Approach)).

A further series deals with full-length ATR (Homo sapiens (Human), UniProt Q13535). Nature of the series: ATR Inhibition Assay (radioactive-phosphate incorporation). The format is biochemical. The settings on record: Ki(app); 5 nM full-length ATR, 10 μM ATP, 25° C. As to the method: Compounds were screened for their ability to inhibit ATR kinase using a radioactive-phosphate incorporation assay. Assays were carried out in a mixture of 50 mM Tris/HCl (pH 7.5), 10 mM MgCl2 and 1 mM DTT. Final substrate concentrations were 10 μM [γ-33P]ATP (3mCi 33P ATP/mmol ATP, Perkin Elmer) and 800 μM target peptide (ASELPASQPQPFSAKKK).
full-length ATR, sequence (Q13535 whole entry): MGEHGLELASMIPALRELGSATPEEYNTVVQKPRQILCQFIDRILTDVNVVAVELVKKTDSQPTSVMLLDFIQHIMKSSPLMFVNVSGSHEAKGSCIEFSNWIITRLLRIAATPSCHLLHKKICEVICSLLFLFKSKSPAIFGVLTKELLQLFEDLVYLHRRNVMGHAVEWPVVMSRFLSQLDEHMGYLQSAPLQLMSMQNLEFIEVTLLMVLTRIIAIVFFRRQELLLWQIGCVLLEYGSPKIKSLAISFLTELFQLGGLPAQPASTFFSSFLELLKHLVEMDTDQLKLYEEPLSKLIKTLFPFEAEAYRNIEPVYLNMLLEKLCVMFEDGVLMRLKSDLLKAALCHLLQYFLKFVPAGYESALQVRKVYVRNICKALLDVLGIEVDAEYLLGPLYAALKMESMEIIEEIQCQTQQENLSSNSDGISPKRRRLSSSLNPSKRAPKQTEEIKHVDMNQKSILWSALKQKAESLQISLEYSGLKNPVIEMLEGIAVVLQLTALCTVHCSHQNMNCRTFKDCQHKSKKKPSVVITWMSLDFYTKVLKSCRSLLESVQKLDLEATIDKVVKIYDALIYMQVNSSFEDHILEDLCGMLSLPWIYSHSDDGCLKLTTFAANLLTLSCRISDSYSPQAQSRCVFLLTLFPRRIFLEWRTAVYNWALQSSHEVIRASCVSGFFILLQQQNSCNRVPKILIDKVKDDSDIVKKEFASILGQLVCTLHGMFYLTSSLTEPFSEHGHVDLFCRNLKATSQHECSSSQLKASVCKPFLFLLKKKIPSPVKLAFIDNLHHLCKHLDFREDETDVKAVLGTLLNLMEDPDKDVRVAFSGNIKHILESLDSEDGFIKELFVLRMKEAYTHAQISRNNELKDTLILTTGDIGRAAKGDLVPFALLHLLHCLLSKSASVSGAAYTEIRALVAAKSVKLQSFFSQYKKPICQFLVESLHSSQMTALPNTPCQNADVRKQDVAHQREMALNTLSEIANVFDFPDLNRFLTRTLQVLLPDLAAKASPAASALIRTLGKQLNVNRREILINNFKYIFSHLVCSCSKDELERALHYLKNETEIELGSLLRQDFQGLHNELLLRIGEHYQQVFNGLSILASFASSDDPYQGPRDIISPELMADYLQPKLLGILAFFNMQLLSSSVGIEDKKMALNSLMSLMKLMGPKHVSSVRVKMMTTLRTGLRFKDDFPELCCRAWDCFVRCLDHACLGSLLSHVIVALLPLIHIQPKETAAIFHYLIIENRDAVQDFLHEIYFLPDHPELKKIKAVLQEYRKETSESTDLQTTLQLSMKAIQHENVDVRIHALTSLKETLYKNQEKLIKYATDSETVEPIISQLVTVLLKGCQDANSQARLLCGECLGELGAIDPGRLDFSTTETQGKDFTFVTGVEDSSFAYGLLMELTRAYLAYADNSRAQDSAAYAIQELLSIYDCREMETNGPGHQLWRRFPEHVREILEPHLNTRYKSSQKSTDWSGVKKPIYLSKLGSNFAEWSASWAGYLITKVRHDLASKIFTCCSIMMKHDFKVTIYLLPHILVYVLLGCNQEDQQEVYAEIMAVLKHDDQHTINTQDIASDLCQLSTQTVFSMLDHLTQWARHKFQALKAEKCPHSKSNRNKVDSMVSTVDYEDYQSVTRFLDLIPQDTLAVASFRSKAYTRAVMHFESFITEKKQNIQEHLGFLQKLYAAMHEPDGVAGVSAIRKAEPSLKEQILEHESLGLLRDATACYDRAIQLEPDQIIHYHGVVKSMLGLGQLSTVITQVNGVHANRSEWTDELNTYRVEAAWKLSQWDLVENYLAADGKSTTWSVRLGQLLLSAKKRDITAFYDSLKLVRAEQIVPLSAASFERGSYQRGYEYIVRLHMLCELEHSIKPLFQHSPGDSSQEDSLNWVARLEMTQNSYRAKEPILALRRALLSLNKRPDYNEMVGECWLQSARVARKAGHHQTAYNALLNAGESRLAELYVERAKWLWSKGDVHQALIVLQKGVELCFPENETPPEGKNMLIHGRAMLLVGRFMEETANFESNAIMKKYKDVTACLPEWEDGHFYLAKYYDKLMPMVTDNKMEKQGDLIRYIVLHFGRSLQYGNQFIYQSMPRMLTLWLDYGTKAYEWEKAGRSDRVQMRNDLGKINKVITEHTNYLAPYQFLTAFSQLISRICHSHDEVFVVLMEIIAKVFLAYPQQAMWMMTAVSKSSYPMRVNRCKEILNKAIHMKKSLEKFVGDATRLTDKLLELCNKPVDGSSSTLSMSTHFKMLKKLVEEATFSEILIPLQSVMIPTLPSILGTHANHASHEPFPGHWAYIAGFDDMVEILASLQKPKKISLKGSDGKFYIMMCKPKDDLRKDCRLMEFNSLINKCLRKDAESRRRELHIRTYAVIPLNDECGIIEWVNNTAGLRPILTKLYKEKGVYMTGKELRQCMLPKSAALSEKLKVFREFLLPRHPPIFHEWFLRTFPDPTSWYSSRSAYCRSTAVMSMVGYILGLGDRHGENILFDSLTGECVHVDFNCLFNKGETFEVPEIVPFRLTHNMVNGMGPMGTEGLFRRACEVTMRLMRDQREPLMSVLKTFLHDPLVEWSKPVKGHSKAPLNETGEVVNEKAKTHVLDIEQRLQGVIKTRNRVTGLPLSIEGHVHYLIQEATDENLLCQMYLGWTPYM
Assays were carried out at 25° C. in the presence of 5 nM full-length ATR. An assay stock buffer solution was prepared containing all of the reagents listed above, with the exception of ATP and the test compound of interest. 13.5 μL of the stock solution was placed in a 96 well plate followed by addition of 2 μL of DMSO stock containing serial dilutions of the test compound (typically starting from a final concentration of 15 μM with 3-fold serial dilutions) in duplicate (final DMSO concentration 7%). The plate was pre-incubated for 10 minutes at 25° C. and the reaction initiated by addition of 15 μL [γ-33P]ATP (final concentration 10 μM).
The reaction was stopped after […] by the addition of 30 μL 0.1M phosphoric acid containing 2 mM ATP. […]
After removing mean background values for all of the data points, Ki(app) data were calculated from non-linear regression analysis of the initial rate data using the Prism software package (GraphPad Prism version 3.0cx for Macintosh, GraphPad Software, San Diego Calif., USA).

The subject of series [2] is HCT116 colorectal cancer cells. In words: Single Agent HCT116 Activity, 96 h cell viability (MTS) assay. The series is classed as cell-based. As to conditions: Homo sapiens, HCT-116, 96 h MTS, read-out: Single agent HT116 IC50. As for the experimental part: Compounds can be screened for single agent activity against HCT116 colorectal cancer cells using a 96 h cell viability (MTS) assay. HCT116 are plated at 470 cells per well in 96-well polystyrene plates (Costar 3596) in 150 μl of McCoy's 5A media (Sigma M8403) supplemented with 10% foetal bovine serum (JRH Biosciences 12003), Penicillin/Streptomycin solution diluted 1:100 (Sigma P7539), and 2 mM L-glumtamine (Sigma G7513), and allowed to adhere overnight at 37° C. in 5% CO2. Compounds are then added to the cell media in 2-fold serial dilutions from a top final concentration of 10 μM as a full matrix of concentrations in a final cell volume of 200 μl, and the cells are then incubated at 37° C. in 5% CO2. After 96 h, 40 μl of MTS reagent (Promega G358a) is added to each well and the cells are incubated for 1 h at 37° C. in 5% CO2. Finally, absorbance is measured at 490 nm using a SpectraMax Plus 384 reader (Molecular Devices) and IC50 values can be calculated.

In another series the target is intracellular ATR (Homo sapiens (Human), UniProt Q13535). In words: Cellular ATR Inhibition Assay (phosphorylation of histone H2AX in hydroxyurea treated HT29 cells). The format is cell-based. As to conditions: phosphorylated H2AX Ser139 in HT29 cells, 2 mM hydroxyurea; read-out: ATR biomarker IC50. As for the experimental part: Compounds can be screened for their ability to inhibit intracellular ATR using an immunofluorescence microscopy assay to detect phosphorylation of the ATR substrate histone H2AX in hydroxyurea treated cells. HT29 cells are plated at 14,000 cells per well in 96-well black imaging plates (BD 353219) in McCoy's 5A media (Sigma M8403) supplemented with 10% foetal bovine serum (JRH Biosciences 12003), Penicillin/Streptomycin solution diluted 1:100 (Sigma P7539), and 2 mM L-glumtamine (Sigma G7513), and allowed to adhere overnight at 37° C. in 5% CO2. Compounds are then added to the cell media from a final concentration of 25 μM in 3-fold serial dilutions and the cells are incubated at 37° C. in 5% CO2. […]
intracellular ATR, sequence (Q13535 whole entry): as above
intracellular ATR, sequence (Q8WXE1 whole entry partner): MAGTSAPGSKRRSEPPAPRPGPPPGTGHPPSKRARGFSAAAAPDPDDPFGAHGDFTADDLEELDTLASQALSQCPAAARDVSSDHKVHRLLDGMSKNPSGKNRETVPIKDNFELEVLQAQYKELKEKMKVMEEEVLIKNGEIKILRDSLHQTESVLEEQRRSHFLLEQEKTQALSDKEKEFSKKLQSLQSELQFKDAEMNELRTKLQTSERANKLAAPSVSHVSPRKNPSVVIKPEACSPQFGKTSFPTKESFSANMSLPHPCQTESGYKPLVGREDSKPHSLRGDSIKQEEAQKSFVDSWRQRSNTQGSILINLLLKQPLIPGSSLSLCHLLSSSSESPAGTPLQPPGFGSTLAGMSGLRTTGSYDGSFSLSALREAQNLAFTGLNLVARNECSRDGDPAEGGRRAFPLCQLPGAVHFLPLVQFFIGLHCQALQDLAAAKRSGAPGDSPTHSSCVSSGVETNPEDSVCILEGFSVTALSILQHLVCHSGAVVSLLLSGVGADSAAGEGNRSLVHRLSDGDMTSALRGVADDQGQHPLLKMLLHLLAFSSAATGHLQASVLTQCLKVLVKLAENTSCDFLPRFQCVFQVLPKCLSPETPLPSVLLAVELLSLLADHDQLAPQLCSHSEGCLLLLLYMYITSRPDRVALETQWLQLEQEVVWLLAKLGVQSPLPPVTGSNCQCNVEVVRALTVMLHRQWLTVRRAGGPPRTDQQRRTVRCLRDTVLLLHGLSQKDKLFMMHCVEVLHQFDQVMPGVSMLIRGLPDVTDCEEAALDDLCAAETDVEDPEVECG
Cells are imaged for Alexa Fluor 488 and Hoechst intensity using the BD Pathway 855 Bioimager and Attovision software (BD Biosciences, Version 1.6/855) to quantify phosphorylated H2AX Ser139 and DNA staining, respectively. The percentage of phosphorylated H2AX-positive nuclei in a montage of 9 images at 20× magnification is then calculated for each well using BD Image Data Explorer software (BD Biosciences Version 2.2.15). […] The percentage of H2AX positive nuclei is finally plotted against concentration for each compound and IC50s for intracellular ATR inhibition are determined using Prism software (GraphPad Prism version 3.0cx for Macintosh, GraphPad Software, San Diego Calif., USA).

The test system of series [3] is HCT116 colorectal cancer cells. Nature of the series: Cisplatin Sensitization Assay, 96 h cell viability (MTS) assay. The series is classed as cell-based. The settings on record: concentration of compound required to reduce the IC50 of Cisplatin alone by at least 3-fold; HCT116, 96 h MTS. As to the method:
Compounds can be screened for their ability to sensitize HCT116 colorectal cancer cells to Cisplatin using a 96 h cell viability (MTS) assay. […] Compounds and Cisplatin are then both added simultaneously to the cell media in 2-fold serial dilutions from a top final concentration of 10 μM as a full matrix of concentrations in a final cell volume of 200 μl, and the cells are then incubated at 37° C. in 5% CO2. After 96 h, 40 μl of MTS reagent (Promega G358a) is added to each well and the cells are incubated for 1 h at 37° C. in 5% CO2. Finally, absorbance is measured at 490 nm using a SpectraMax Plus 384 reader (Molecular Devices) and the concentration of compound required to reduce the IC50 of Cisplatin alone by at least 3-fold (to 1 decimal place) can be reported.

In series [1] (blood or plasma samples), `CC(C)S(=O)(=O)c1ccc(-c2cnc(N)c(-c3cc(-c4ccc([C@@H]5COCCN5)cc4)no3)n2)cc1` [I, 5-(4-isopropylsulfonylphenyl)-3-[3-[4-[(3R)-morpholin-3-yl]phenyl]isoxazol-5-yl]pyrazin-2-amine] came in with a clearance of 3.5 mL/min/kg. The Vd in series [1] (steady state volume of distribution, read-out: VSS) came to 1.1 L/kg. The Ki on full-length ATR was 0.503 nM. Also, the concentration for half-maximal inhibition (IC50) in series [2] worked out at 365 nM; at intracellular ATR, 200 nM. Moreover, the Cisplatin sensitization in series [3] is listed as 117 nM.
